Data taken from publication PMC7477548, “Prediction of an MMP-1 inhibitor activity cliff using the SAR matrix approach and its experimental validation” (Scientific Reports, 2020).

Experiments:
[1] = molecular target: T1, MMP-1 (Homo sapiens, UniProt P03956); test: MMP-1 inhibitory colorimetric assay (MMP1 Inhibitor Screening Assay Kit ab139443); type: biochemical; settings: for IC50: colorimetric assay, A412nm, mean ± standard deviation of triplicated samples; for inhibitory activity against MMP-1 in words: at a 100 µM concentration
T1 construct: purchased abcam ab139443
T1 sequence (P03956 100-269 limits assumed): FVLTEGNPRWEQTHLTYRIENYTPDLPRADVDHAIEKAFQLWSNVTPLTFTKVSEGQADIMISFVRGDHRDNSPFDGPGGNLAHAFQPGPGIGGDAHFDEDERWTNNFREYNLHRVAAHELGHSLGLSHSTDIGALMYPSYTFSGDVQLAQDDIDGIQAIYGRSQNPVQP
Description: We next examined the inhibitory activity of the synthesized compounds 3–6 against MMP-1 using a colorimetric assay. This assay was performed using the MMP-1 Inhibitor Screening Assay Kit (ab139443) according to the manufacturer’s protocols. The reaction was started by the addition of the diluted MMP-1 substrate. The continuous absorbance of the wells was measured at A412nm using a microplate reader.
MMP-1 inhibitory assay was performed using the assay kit according to the manufacturer’s protocol. A 96-well clear microplate (1/2 volume), 30.6 U/µL of MMP-1 enzyme, MMP-1 substrate (25 mM in DMSO), and colorimetric assay buffer were contained in MMP1 Inhibitor Screening Assay Kit (ab139443, abcam). 2-[(2-Methylpropyl)[(4-methoxyphenyl)sulfonyl]amino]acetohydroximic acid (NNGH) was used as a positive control of an MMP-1 inhibitor. The MMP-1 substrate and DMSO solution of compound were thawed at room temperature. A compound (10 mM in DMSO) was diluted at 1/200 in assay buffer and brought to 37 °C. Also, the MMP-1 substrate was diluted at 1/200 in assay buffer and brought to 37 °C. The MMP-1 enzyme was diluted at 1/25 in assay buffer and warmed up to 37 °C as soon as the assay was started. After the assay buffer was pipetted appropriately into each well, 20 µL of the prepared MMP-1 enzyme solution and the desired concentration of test inhibitor solutions (20 µL; final concentrations: 0.1–100 µM) were added to the wells. The microplate was incubated for 30 min at 37 °C. The 10 µL of the prepared MMP-1 substrate solution was added into each well to allow the reaction start. The absorbance of the wells was measured at A412nm using a microplate reader every 1 min, and data analysis was performed.

Row | SMILES | IC50 [1] [µM] | melting point [°C] | fold higher MMP-1 inhibitory activity (fold lower IC50) of compound 4 relative to compound 3 ([1]; ratio of IC50 values, compound 3 vs compound 4) [fold] | inhibitory activity against MMP-1 in words [1]
1 | C[C@H](C(=O)NO)N1CC[C@@](C)(c2cccc(C(F)(F)F)c2)C1=O [Compound 6, (R)-N-hydroxy-2-((S)-3-methyl-2-oxo-3-(3-(trifluoromethyl)phenyl)pyrrolidin-1-yl)propanamide] | 11.1 ± 0.5 |  |  | 
2 | C[C@H](C(=O)NO)N1CC[C@@](C)(c2ccccc2)C1=O [Compound 5, (R)-N-hydroxy-2-((S)-3-methyl-2-oxo-3-phenylpyrrolidin-1-yl)propanamide] | 1.54 ± 0.08 |  |  | 
3 | C[C@H](C(=O)NO)N1CC[C@@](C)(c2ccc(-c3ccccc3)cc2)C1=O [Compound 3, (R)-2-((S)-3-([1,1′-biphenyl]-4-yl)-3-methyl-2-oxopyrrolidin-1-yl)-N-hydroxypropanamide] | 11.5 ± 1.3 | 160 to 162 |  | 
4 | C[C@H](C(=O)NO)N1CC[C@@](C)(c2ccc(C(F)(F)F)cc2)C1=O [Compound 4, (R)-N-hydroxy-2-((S)-3-methyl-2-oxo-3-(4-(trifluoromethyl)phenyl)pyrrolidin-1-yl)propanamide] | 0.18 ± 0.03 |  | 60 | 
5 | C[C@H](C(=O)NO)N1CC[C@](C)(c2ccc(C(F)(F)F)cc2)C1=O [4′, (R)-N-hydroxy-2-((R)-3-methyl-2-oxo-3-(4-(trifluoromethyl)phenyl)pyrrolidin-1-yl)propanamide] | > 100 | 105 to 107 |  | did not display significant inhibitory activity
6 | C[C@H](C(=O)NO)N1CC[C@](C)(c2ccc(-c3ccccc3)cc2)C1=O [3′, (R)-2-((R)-3-([1,1′-biphenyl]-4-yl)-3-methyl-2-oxopyrrolidin-1-yl)-N-hydroxypropanamide] | > 100 | 137 to 138 |  | did not display significant inhibitory activity
